Read-outs that look alike come from different tables or passages of the source.
Assay: Multi-component pharmacokinetic study of GQD, GQD-GC and single herb extracts in rats (plasma, LC/MS/MS)
Assay type: in vivo, Sprague-Dawley rats
Settings: for AUC(0-t) / Cmax / half-life / Tmax: male, Sprague-Dawley, rat, plasma; for AUC(0-t): po, read-out: AUClast; for Cmax: read-out: Cmax; for half-life: read-out: T1/2 (converted); for Tmax: read-out: Tmax
Procedure: Male Sprague-Dawley rats (220–250 g) were used for PK study, and the details were described in Supplemental Data. All procedures were in accordance with the National Institutes of Health Guide for the Care and Use of Laboratory Animals.
For PK study of GQD and its component herbs, rats were randomly divided into six groups (n = 10 for each group) before oral administration.
All blood samples were immediately centrifuged at 6,000 rpm (4°C) for 20 min to obtain plasma. The plasma samples were stored at −80°C.
A Finnigan TSQ Quantum triple quadrupole mass spectrometer was connected to a Surveyor HPLC via ESI interface (ThermoFisher). High purity nitrogen was used as the sheath and auxiliary gas; Ultra-high purity argon was used as the collision gas (1.5 mTorr). Q1 and Q3 quadrupoles were set at unit resolution. […] The column temperature was 40°C. The mobile phase consisted of acetonitrile containing 2% (v/v) methanol (A) and water containing 0.1% (v/v) formic acid (B). […] An aliquot of 5 μL was injected for analysis. UV spectra were obtained by scanning from 200 to 400 nm. The mass spectrometer was operated in the (+)-ESI mode. The optimized parameters were as follows: sheath gas (N2), 50 arb; auxiliary gas (N2), 5 arb; spray voltage, 4.0 kV; capillary temperature, 330°C; collision energy, see Table S1. Analytes were detected in the selected reaction monitoring (SRM) mode. Data were processed by Xcalibur 2.0.7 software (ThermoFisher).
LC/MS/MS calibration and quantitation data were processed with Xcalibur 2.0.7 software (ThermoFisher). The maximal plasma concentrations (Cmax) and their time of occurrence (Tmax) were obtained directly from the measured data. Other pharmacokinetic parameters were calculated by non-compartment or compartment models using WinNonlin® software (v6.1, Pharsight). Unless otherwise stated, results were expressed as the mean ± SD. Statistical significance in differences of the means was determined by Student's t–test, with a significance level of P < 0.05.
Herbal materials and extracts.
The four component herbs, Puerariae Lobatae Radix (Ge-Gen, GG), Scutellariae Radix (Huang-Qin, HQ), Coptidis Rhizoma (Huang-Lian, HL), and Glycyrrhizae Radix et Rhizoma Praeparata cum Melle (Gan-Cao, GC) were purchased from Tianheng Pharmacy. GQD was prepared by decocting the four component herbs […]
pre-extraction of Ge-Gen using 200 mL of water for 0.5 h. The decoctions were combined, filtered, and concentrated in vacuum at 50 °C. GQD-GC was prepared using the same procedure, except that Gan-Cao was removed from the formula. Final concentration of the GQD-GC extract was equivalent to 1.0 g of the crude drugs per mL. For single herb extracts, the herbs were decocted in 8-fold volume of water for […]
Final concentrations of the extracts were 1.0 g/mL for Ge-Gen, and 0.5 g/mL for Huang-Qin, Huang-Lian and […]
For pharmacokinetic study, Male Sprague-Dawley rats (220-250 g) were obtained from the Laboratory Animal Center of Peking University Health Science Center. The […]
The rats had free access to tap water and soy-free custom diet (Ke’ao Xieli Co.). All procedures were in accordance with the National Institutes of Health Guide for the Care and Use of Laboratory Animals […]
Experimental details for the PK study
1. Preparation of internal standard solution, calibration standard solutions, and quality control solutions […]
internal standard solution. Reference standard compounds were dissolved in the internal standard solution to prepare individual stock solutions (1.0 mg/mL). These […]
each compound. The standard solution was then serially diluted to obtain calibration […]
Quality control stock solutions were prepared at three concentration levels as high QC (HQC), middle QC (MQC), and low QC (LQC), based on linear ranges of the analytes.
2.1. Sample preparation for pharmacokinetic study
The calibration standard and quality control solutions for pharmacokinetic study were […]

[1] = 9.45 g/kg, GG (Ge-Gen) group: rats, oral extract 9.45 g/kg
[2] = 16.5 g/kg, GQD-GC group (GQD without Gan-Cao): rats, oral 16.5 g/kg
[3] = 18.9 g/kg, GQD group: rats, oral GQD extract 18.9 g/kg
[4] = GG (Ge-Gen) group: rats, oral extract 9.45 g/kg
[5] = GQD group: rats, oral GQD extract 18.9 g/kg
[6] = GQD-GC group (GQD without Gan-Cao): rats, oral 16.5 g/kg
[7] = 3.54 g/kg, HQ (Huang-Qin) group: rats, oral extract 3.54 g/kg
[8] = HQ (Huang-Qin) group: rats, oral extract 3.54 g/kg
[9] = HL (Huang-Lian) group: rats, oral extract 3.54 g/kg

| AUC(0-t) [1] [ng·h/mL] | AUC(0-t) [2] [ng·h/mL] | AUC(0-t) [3] [ng·h/mL] | Cmax [4] [ng/mL] | half-life [4] [min] | Tmax [4] [h] | Cmax [5] [ng/mL] | half-life [5] [min] | Tmax [5] [h] | Cmax [6] [ng/mL] | half-life [6] [min] | Tmax [6] [h] | SMILES | AUC(0-t) [7] [ng·h/mL] | Cmax [8] [ng/mL] | half-life [8] [min] | Tmax [8] [h] | also measured |
| --- | --- | --- | --- | --- | --- | --- | --- | --- | --- | --- | --- | --- | --- | --- | --- | --- | --- |
| 67.3 ± 28.7 | 18.9 ± 4.09 | 37.5 ± 21.1 | 14.9 ± 9.76 | 559 ± 131 | 0.52 ± 1.11 | 10.9 ± 9.4 | 479 ± 173 | 0.52 ± 0.26 | 11.1 ± 4.41 | 387 ± 310 | 0.53 ± 1.2 | COc1ccc(C2=CC(=O)OC2Cc2ccc(O)cc2)c(OC2OC(CO)C(O)C(O)C2O)c1 [Compound 41, (4S)-puerol B 2″-O-glucopyranoside] |  |  |  |  |  |
|  | 28.2 ± 3.04 | 53 ± 7.56 |  |  |  | 1.83 ± 0.14 | 968 ± 253 | 2 ± 1.29 | 5.17 ± 0.26 | 787 ± 238 | 2 ± 4.23 | COc1c(O)cc(OC2OC(CO)C(O)C(O)C2O)c2c(=O)cc(-c3ccccc3)oc12 (stereo not shown) [Compound 13, wogonin 5-O-glucoside] | 42.8 ± 6.01 | 1.92 ± 0.13 | 965 ± 327 | 0.1 ± 0.07 |  |
| 51.7 ± 24.2 | 88.2 ± 24.3 | 72.6 ± 15.2 | 3.09 ± 1.99 | 413 ± 314 | 1 ± 2.31 | 4.97 ± 1.11 | 416 ± 43.8 | 1.04 ± 0.78 | 8.08 ± 3.19 | 490 ± 146 | 1.04 ± 0.75 | O=c1c(-c2ccc(O)cc2)coc2cc(O[C@@H]3O[C@H](CO)[C@@H](O)[C@H](O)[C@H]3O)cc(O)c12 [Compound 4, genistin] |  |  |  |  | bioavailability in the GQD group compared with the Ge-Gen group (rats, oral): higher |

| SMILES | AUC(0-t) [1] [ng·h/mL] | AUC(0-t) [2] [ng·h/mL] | AUC(0-t) [3] [ng·h/mL] | Cmax [4] [ng/mL] | half-life [4] [min] | Tmax [4] [h] | Cmax [5] [ng/mL] | half-life [5] [min] | Tmax [5] [h] | Cmax [6] [ng/mL] | half-life [6] [min] | Tmax [6] [h] | AUC(0-t) [7] [ng·h/mL] | Cmax [8] [ng/mL] | half-life [8] [min] | Tmax [8] [h] | also measured |
| --- | --- | --- | --- | --- | --- | --- | --- | --- | --- | --- | --- | --- | --- | --- | --- | --- | --- |
| O=C(O)[C@H]1O[C@@H](Oc2cc3oc(-c4ccccc4)cc(=O)c3c(O)c2O)[C@H](O)[C@@H](O)[C@@H]1O [Compound 17, baicalin] |  | 39600 ± 2610 | 22300 ± 11200 |  |  |  | 1180 ± 870 | 288 ± 196 | 7.29 ± 1.38 | 1890 ± 988 | 320 ± 153 | 7.71 ± 1.34 | 52600 ± 35500 | 4040 ± 584 | 199 ± 64.8 | 7.79 ± 0.99 | AUC(0-t) (3.54 g/kg, Huang-Qin group: rats, oral 3.54 g/kg): 52600 ± 35500 ng·h/mL; decrease of Cmax in the GQD group compared with the Huang-Qin group (rats, oral, GQD vs Huang-Qin): at least 30% |
| COc1cc2c(cc1O)CC[n+]1cc3c(OC)c(OC)ccc3cc1-2 [Compound 23, jatrorrhizine] |  | 105 ± 34.2 | 195 ± 25.7 |  |  |  | 8.54 ± 0.05 | 418 ± 106 | 0.72 ± 0.11 | 9.14 ± 0.82 | 187 ± 7.8 | 0.63 ± 0.32 |  |  |  |  | AUC(0-t) (3.54 g/kg, HL (Huang-Lian) group: rats, oral extract 3.54 g/kg): 119 ± 52.4 ng·h/mL; AUC(0-t) (3.54 g/kg, Huang-Lian group: rats, oral 3.54 g/kg): 119 ± 52.4 ng·h/mL; AUC(0-t) (16.5 g/kg, GQD−GC group: rats, oral 16.5 g/kg): 105 ± 34.2 ng·h/mL; AUC(0-t) (18.9 g/kg, GQD group: rats, oral GQD 18.9 g/kg (1.5-fold of clinical dosage)): > 100 ng·h/mL; Cmax [9]: 6.6 ± 0.59 ng/mL; half-life [9]: 309 ± 104 min; Tmax [9]: 0.61 ± 0.11 h; increase of AUClast in GQD group compared with the Huang-Lian group (rats, oral, GQD vs Huang-Lian): 63.6% |
